Laboratory results published in patent US20250179029A1, “DEUTERATED RETINOIDAL COMPOUNDS AND SYNTHESIS AND USES THEREOF” (UNIVERSITY OF MARYLAND, BALTIMORE, priority 2022, published 2025).
Read-outs that look alike come from different tables or passages of the source.

Columns and labels:
[1] = Plasma pharmacokinetics after single oral dose in female CD-1 mice; assay type: in vivo; conditions: for AUC(0-inf) / MRT (mean residence time) / T1/2 (elimination half-life) / Tmax / Cmax / overall Rank by Total Score: single p.o. dose 10 mg/kg, female CD-1 mice; for AUC(0-inf) / MRT (mean residence time) / T1/2 (elimination half-life) / Tmax / Cmax: plasma; for Cmax: mean of three mice; for clearance from systemic circulation (plasma concentration versus time profile) / systemic exposure: single PO dosing, mice, FIGS. 12A-12C
Description: The PK study was performed by the Certified Research Organization (CRO), Aragen Life Sciences Private Limited (Aragen), Hyderabad, India. All procedures of the present study were in accordance with the guidelines provided by the Committee for the Purpose of Control and Supervision of Experiments on Animals (CPCSEA) as published in The Gazette of India, Jan. 7, 2010. CPCSEA renewal number for institute is 1125/PO/Rc/S/CPCSEA on 13Feb. 2014. Institutional Animal Ethics Committee (IAEC) approval has been taken to initiate the study (IAEC Approval Number: B-011A). The details are presented in the Supplementary Materials.
To minimize the number of mice used in the PK study using a validated LC/MS/MS analysis, both individual (discrete) (set #1: Compound 5, EM=463.2937 and set #2: […], EM=463.2937) and cassette (set #3: Compounds 2, 3, and 7; EMs=459.2686, 462.2874 and 466.3125, respectively, and set #4: Compounds 4, 8, and 9; EMs=460.2749, 464.2999 and 467.3188, respectively) dosing were used.^59,66 The four sets studied were dictated by the exact molecular masses of the compounds as indicated above and in FIG. 3.
The plasma PK profiles were obtained after single oral (PO) dosing of the compounds in mice.
In Table 2, data are presented as the mean of values obtained from three female CD-1 mice. Cmax is the maximum observed plasma concentration. Tmax is the time to maximum concentration. T1/2 is the elimination half-life. AUC represents AUC (0-∞), which is the area under the concentration-time curve from time of dosing extrapolated to infinity. MRT refers to mean residence time. The number in parentheses indicate the rank order from best (1) to worst (8).

[2] = tested on: MDA-MB-231 tumor xenograft; test: Anti-tumor activity in MDA-MB-231 xenograft mouse model; assay type: in vivo; conditions: 20 mg/kg, PO, 5 days/week, 16 days
Description: (§1) FIGS. 13A-13D show the anti-tumor activity of VNLG-152R, Compound 4, Compound 8, and Compound 9 in xenograft mouse models. […] In FIGS. 13B and 13D, *=p<0.0001.
(§2) After confirming the improved pharmacokinetic parameters of deuterated compounds 4, 8, and 9, the anti-tumor activity of these compounds was tested in xenograft models of MDA-MB-231 and MDA-MB-468. In both models, the mice for each group were treated with either vehicle (control) or the compounds, each at 20 mg/kg, PO, 5 days/week.

MCF7 = test: MTT antiproliferative assay, MCF7 non-TNBC cells; assay type: cell-based; conditions: Homo sapiens, mean of three independent experiments
Description: (§3) Compounds 2, 4, 8 and 9, as well as paclitaxel (PTX) were evaluated over a range of concentrations to examine their antiproliferative activities against two non-TNBC cell lines, MCF7 and SKBR3using the well-established 3-(4,5-dimethylthiazolyl-2)-2,5-diphenyl tetrazolium bromide (MTT) assay.^48,55,56 The parent non-deuterated VNLG-152R (Compound 2) was used as the positive control.
(§4) As presented in Table 1 below, the GI50 values of the deuterated Compounds 4, 8 and 9 against the MCF7 cell are identical to the GI50 value of the parent protio VNLG-152R (Compound 2). In contrast, the SKBR3 cell appears to be more sensitive to the deuterated compounds compared to the parent non-deuterated VNLG-152R (Compound 2). The reason for this difference is not understood at this time. The applicant hypothesizes that the enhanced diffusion of these deuterated molecules across the cell membrane of this cell line may result in enhanced intracellular concentrations and inhibition of its proliferation. Each data point is a mean of replicates from three independent experiments.

[3] = tested on: MDA-MB-468 tumor xenograft; test: Anti-tumor activity in MDA-MB-468 xenograft mouse model; assay type: in vivo; conditions: 20 mg/kg, PO, 5 days/week, 16 days
Description: as §1, §2

SKBR3 = test: MTT antiproliferative assay, SKBR3 non-TNBC cells; assay type: cell-based; conditions: Homo sapiens, SK-BR-3, mean of three independent experiments
Description: as §3, §4

AUC(0-inf) ([1]; mouse, po) | MRT (mean residence time) [1] | T1/2 (elimination half-life) [1] | Tmax [1] | Cmax [1] | GI50 (MCF7) | GI50 (SKBR3) | clearance from systemic circulation (plasma concentration versus time profile) [1] | systemic exposure [1] | overall Rank by Total Score [1] | Tmax ([1]; mouse, po, read-out: Tmax) | SMILES | reduction of tumor growth [2] | tumor regression [3] | reduction of tumor growth [3]
17600 ng·h/mL | 9.06 h | 12.05 h | 2.50 h | 1031.65 ng/mL | 230 ± 250 nM | 140 ± 230 nM | could not be detected after 8 hours | very low systemic exposures | 2nd |  | [2H]C1(n2ccnc2)CCC(C)(C)C(/C=C/C(C)=C/C=C/C(C)=C/C(=O)Nc2ccc(F)cc2)=C1C (racemic) [Compound 4, (±) 4-(Imidazolyl)-4-(D)-(4′-fluoro(phenyl))-(E)-retinamide] | 95% | 6.6% | 
2700 ng·h/mL | 5.49 h | 4.27 h | 0.67 h | 500.72 ng/mL |  |  |  |  |  |  | [2H]c1nc([2H])n(C2([2H])CCC(C)(C)C(/C=C/C(C)=C/C=C/C(C)=C/C(=O)Nc3ccc(F)cc3)=C2C)c1[2H] (racemic) [Compound 5, (±) 4-(Imidazolyl-2″3″5″-D3)-4-(D)-(4′-fluoro(phenyl))-(E)-retinamide] |  |  | 
2060 ng·h/mL | 2.89 h | 4.34 h | 0.83 h | 454.97 ng/mL |  |  |  |  |  |  | [2H]c1nc([2H])n(C2CCC(C)(C)C(/C=C/C(C)=C/C=C/C(C)=C/C(=O)Nc3c([2H])c([2H])c(F)c([2H])c3[2H])=C2C)c1[2H] (racemic) [Compound 7, (±) 4-(Imidazolyl-2″3″5″-D3)-4-(H)-(4′-fluoro(phenyl-2′3′5′6′-D4))-(E)-retinamide] |  |  | 
15500 ng·h/mL | 8.48 h | 10.20 h | 0.75 h | 1361.22 ng/mL | 330 ± 140 nM | 110 ± 200 nM | could not be detected after 8 hours | very low systemic exposures | 3rd |  | [2H]c1c([2H])c(NC(=O)/C=C(C)/C=C/C=C(C)/C=C/C2=C(C)C([2H])(n3ccnc3)CCC2(C)C)c([2H])c([2H])c1F (racemic) [Compound 8, (±) 4-(Imidazolyl)-4-(D)-(4′-fluoro(phenyl-2′3′5′6′-D4))-(E)-retinamide] | 95% |  | 93%
 | 9.06 h | 12.05 h |  |  |  |  |  |  |  |  | CC1=C(/C=C/C(C)=C/C=C/C(C)=C/C(=O)Nc2ccc(F)cc2)C(C)(C)CCC1=O [Compound 16, 4-Oxo-(4′-fluoro(phenyl))-(E)-retinamide] |  |  | 

More lines, now with the values behind:

SMILES | AUC(0-inf) ([1]; mouse, po) | MRT (mean residence time) [1] | T1/2 (elimination half-life) [1] | Tmax [1] | Cmax [1] | GI50 (MCF7) | GI50 (SKBR3) | clearance from systemic circulation (plasma concentration versus time profile) [1] | systemic exposure [1] | overall Rank by Total Score [1] | Tmax ([1]; mouse, po, read-out: Tmax) | reduction of tumor growth [2] | tumor regression [3] | reduction of tumor growth [3]
[2H]c1nc([2H])n(C2CCC(C)(C)C(/C=C/C(C)=C/C=C/C(C)=C/C(=O)Nc3ccc(F)cc3)=C2C)c1[2H] (racemic) [Compound 3, (±) 4-(Imidazolyl-2″3″5″-D3)-4-(H)-(4′-fluoro(phenyl))-(E)-retinamide] | 1740 ng·h/mL | 3.57 h | 8.39 h | 1.33 h | 151.17 ng/mL |  |  |  |  |  |  |  |  | 
[2H]c1c([2H])c(NC(=O)/C=C(C)/C=C/C=C(C)/C=C/C2=C(C)C(n3ccnc3)CCC2(C)C)c([2H])c([2H])c1F (racemic) [Compound 6, (±) 4-Imidazolyl-4(H)-(4′-fluoro(phenyl-2′3′5′6′-D4))-(E)-retinamide] | 1730 ng·h/mL | 4.63 h | 4.90 h |  | 272.72 ng/mL |  |  |  |  |  | 0.83 h |  |  | 
CC(=O)O[C@H]1C(=O)[C@@]2(C)[C@H]([C@H](OC(=O)c3ccccc3)[C@]3(O)C[C@H](OC(=O)[C@H](O)[C@@H](NC(=O)c4ccccc4)c4ccccc4)C(C)=C1C3(C)C)[C@]1(OC(C)=O)CO[C@@H]1C[C@@H]2O [Paclitaxel, paclitaxel, reference compound] |  |  |  |  |  | 60 ± 120 nM | 60 ± 120 nM |  |  |  |  |  |  | 
